Experimental data reported in patent US20220071989A1, “METHODS OF TREATING NEGATIVE SYMPTOMS OF SCHIZOPHRENIA USING DEUTERATED DEXTROMETHORPHAN AND QUINIDINE” (AVANIR PHARMACEUTICALS, INC., priority 2019, published 2022).

Legend:
[1] = Plasma concentrations of d6-DM, d3-DX, d3-3-MM and Q (Example 1); conditions: 2 to 3 hours after morning dose
Method: Plasma samples were separated by centrifugation and then frozen at −20° C. until assayed at the analytical unit.

[2] = PK parameters (Cmax, AUC) estimated from measured drug concentrations with a PK model (Example 1); type: in vivo, human
[3] = d6-DM/Q/d6-DM/Q group at Visit 4 (Week 6)
[4] = d6-DM/Q/d6-DM/Q group at Visit 7 (Week 12)
[5] = placebo/d6-DM/Q group at Visit 7 (Week 12)
[6] = Visit 4 (Week 6), d6-DM/Q/d6-DM/Q, All metabolizer types
[7] = Visit 4 (Week 6), d6-DM/Q/d6-DM/Q, Extensive metabolizer subgroup
[8] = Visit 4 (Week 6), d6-DM/Q/d6-DM/Q, Intermediate metabolizer subgroup
[9] = Visit 4 (Week 6), d6-DM/Q/d6-DM/Q, Poor metabolizer subgroup
[10] = Visit 4 (Week 6), d6-DM/Q/d6-DM/Q, Ultra-Rapid metabolizer subgroup
[11] = Visit 7 (Week 12), d6-DM/Q/d6-DM/Q, All metabolizer types
[12] = Visit 7 (Week 12), d6-DM/Q/d6-DM/Q, Extensive metabolizer subgroup
[13] = Visit 7 (Week 12), d6-DM/Q/d6-DM/Q, Intermediate metabolizer subgroup
[14] = Visit 7 (Week 12), d6-DM/Q/d6-DM/Q, Ultra-Rapid metabolizer subgroup
[15] = Visit 7 (Week 12), placebo/d6-DM/Q, All metabolizer types
[16] = Visit 7 (Week 12), placebo/d6-DM/Q, Extensive metabolizer subgroup
[17] = Visit 7 (Week 12), placebo/d6-DM/Q, Intermediate metabolizer subgroup
[18] = Visit 7 (Week 12), placebo/d6-DM/Q, Poor metabolizer subgroup

**Q.** What does the source list for `[2H]C([2H])([2H])Oc1ccc2c(c1)C13CCCCC1C(C2)NCC3` (stereo not shown) [d3-3-MM]?
**A.** mean plasma concentration, all patients [1, 3]: 20.5 ng/mL; mean plasma concentration, all patients [1, 4]: 19.4 ng/mL; mean plasma concentration, all patients [1, 5]: 23.4 ng/mL

**Q.** For `[2H]C([2H])([2H])N1CCC23CCCCC2C1Cc1ccc(O)cc13` (stereo not shown) [d3-DX, deuterated (d3)-dextrorphan], which “AUC, mean (SD)” value [2, 6] is on record?
**A.** The value was 1142.3 (378.08) h × ng/mL.

**Q.** And the “AUC, median (min, max)” value [2, 6]?
**A.** Its value is 1083.8 (506, 2091) h × ng/mL.

**Q.** And the “Cmax, mean (SD)” value [2, 6]?
**A.** The value was 127.4 (50.25) ng/mL.

**Q.** What about the “Cmax, median (min, max)” value [2, 6] of the same molecule?
**A.** The value was 121.6 (56, 332) ng/mL.

**Q.** What about the “AUC, mean (SD)” value [2, 7] of the same molecule?
**A.** Its value is 1235.3 (389.01) h × ng/mL.

**Q.** And the “AUC, median (min, max)” value [2, 7]?
**A.** Its value is 1119.6 (729, 2091) h × ng/mL.

**Q.** And the “Cmax, mean (SD)” value [2, 7]?
**A.** Its value is 144.6 (56.42) ng/mL.

**Q.** And the “Cmax, median (min, max)” value [2, 7]?
**A.** Its value is 134.9 (72, 332) ng/mL.

**Q.** And the “AUC, mean (SD)” value [2, 8]?
**A.** The value was 1044.8 (340.96) h × ng/mL.

**Q.** What about the “AUC, median (min, max)” value [2, 8] of the same molecule?
**A.** The value was 991.6 (506, 1847) h × ng/mL.

**Q.** What about the “Cmax, mean (SD)” value [2, 8] of the same molecule?
**A.** Its value is 111.5 (38.83) ng/mL.

**Q.** What about the “Cmax, median (min, max)” value [2, 8] of the same molecule?
**A.** Its value is 101.2 (56, 195) ng/mL.

**Q.** And the “AUC, mean (SD)” value [2, 9]?
**A.** Its value is 887.2 (na) h × ng/mL.

**Q.** What about the “AUC, median (min, max)” value [2, 9] of the same molecule?
**A.** Its value is 887.2 (887, 887) h × ng/mL.

**Q.** What about the “Cmax, mean (SD)” value [2, 9] of the same molecule?
**A.** The value was 87.2 (na) ng/mL.

**Q.** What about the “Cmax, median (min, max)” value [2, 9] of the same molecule?
**A.** Its value is 87.2 (87, 87) ng/mL.

**Q.** And the “AUC, mean (SD)” value [2, 10]?
**A.** The value was 1774.7 (na) h × ng/mL.

**Q.** What about the “AUC, median (min, max)” value [2, 10] of the same molecule?
**A.** Its value is 1774.7 (1775, 1775) h × ng/mL.

**Q.** And the “Cmax, mean (SD)” value [2, 10]?
**A.** The value was 193.1 (na) ng/mL.

**Q.** And the “Cmax, median (min, max)” value [2, 10]?
**A.** Its value is 193.1 (193, 193) ng/mL.

**Q.** And the “AUC, mean (SD)” value [2, 11]?
**A.** The value was 1142.8 (378.46) h × ng/mL.

**Q.** And the “AUC, median (min, max)” value [2, 11]?
**A.** Its value is 1087.1 (511, 2115) h × ng/mL.

**Q.** And the “Cmax, mean (SD)” value [2, 11]?
**A.** Its value is 126.8 (50.32) ng/mL.

**Q.** What about the “Cmax, median (min, max)” value [2, 11] of the same molecule?
**A.** The value was 123.0 (57, 337) ng/mL.

**Q.** And the “AUC, mean (SD)” value [2, 12]?
**A.** Its value is 1243.6 (394.70) h × ng/mL.

**Q.** And the “AUC, median (min, max)” value [2, 12]?
**A.** The value was 1123.4 (740, 2115) h × ng/mL.

**Q.** And the “Cmax, mean (SD)” value [2, 12]?
**A.** Its value is 144.9 (56.98) ng/mL.

**Q.** What about the “Cmax, median (min, max)” value [2, 12] of the same molecule?
**A.** The value was 133.9 (76, 337) ng/mL.

**Q.** What about the “AUC, mean (SD)” value [2, 13] of the same molecule?
**A.** The value was 1015.0 (312.22) h × ng/mL.

**Q.** And the “AUC, median (min, max)” value [2, 13]?
**A.** The value was 1000.2 (511, 1833) h × ng/mL.

**Q.** And the “Cmax, mean (SD)” value [2, 13]?
**A.** The value was 106.3 (33.76) ng/mL.

**Q.** And the “Cmax, median (min, max)” value [2, 13]?
**A.** The value was 100.6 (57, 187) ng/mL.

**Q.** What about the “AUC, mean (SD)” value [2, 14] of the same molecule?
**A.** Its value is 1783.3 (na) h × ng/mL.

**Q.** And the “AUC, median (min, max)” value [2, 14]?
**A.** Its value is 1783.3 (1783, 1783) h × ng/mL.

**Q.** What about the “Cmax, mean (SD)” value [2, 14] of the same molecule?
**A.** The value was 190.3 (na) ng/mL.

**Q.** What about the “Cmax, median (min, max)” value [2, 14] of the same molecule?
**A.** The value was 190.3 (190, 190) ng/mL.

**Q.** What about the “AUC, mean (SD)” value [2, 15] of the same molecule?
**A.** The value was 1181.4 (515.68) h × ng/mL.

**Q.** What about the “AUC, median (min, max)” value [2, 15] of the same molecule?
**A.** The value was 1085.8 (651, 3622) h × ng/mL.

**Q.** What about the “Cmax, mean (SD)” value [2, 15] of the same molecule?
**A.** The value was 126.6 (49.10) ng/mL.

**Q.** And the “Cmax, median (min, max)” value [2, 15]?
**A.** The value was 116.4 (65, 318) ng/mL.

**Q.** What about the “AUC, mean (SD)” value [2, 16] of the same molecule?
**A.** The value was 1323.8 (623.07) h × ng/mL.

**Q.** What about the “AUC, median (min, max)” value [2, 16] of the same molecule?
**A.** Its value is 1131.7 (750, 3622) h × ng/mL.

**Q.** What about the “Cmax, mean (SD)” value [2, 16] of the same molecule?
**A.** Its value is 142.5 (56.08) ng/mL.

**Q.** What about the “Cmax, median (min, max)” value [2, 16] of the same molecule?
**A.** The value was 130.9 (80, 318) ng/mL.

**Q.** And the “AUC, mean (SD)” value [2, 17]?
**A.** The value was 1014.1 (202.39) h × ng/mL.

**Q.** What about the “AUC, median (min, max)” value [2, 17] of the same molecule?
**A.** The value was 940.4 (745, 1367) h × ng/mL.

**Q.** And the “Cmax, mean (SD)” value [2, 17]?
**A.** Its value is 108.0 (24.89) ng/mL.

**Q.** What about the “Cmax, median (min, max)” value [2, 17] of the same molecule?
**A.** The value was 105.2 (76, 168) ng/mL.

**Q.** And the “AUC, mean (SD)” value [2, 18]?
**A.** The value was 651.2 (na) h × ng/mL.

**Q.** And the “AUC, median (min, max)” value [2, 18]?
**A.** Its value is 651.2 (651, 651) h × ng/mL.

**Q.** What about the “Cmax, mean (SD)” value [2, 18] of the same molecule?
**A.** Its value is 65.1 (na) ng/mL.

**Q.** What about the “Cmax, median (min, max)” value [2, 18] of the same molecule?
**A.** The value was 65.1 (65, 65) ng/mL.

**Q.** And the “mean plasma concentration, all patients” value [1, 3]?
**A.** Its value is 101.2 ng/mL.

**Q.** What about the “mean plasma concentration, all patients” value [1, 4] of the same molecule?
**A.** The value was 111.6 ng/mL.

**Q.** What about the “mean plasma concentration, all patients” value [1, 5] of the same molecule?
**A.** The value was 124.5 ng/mL.
